# Data published in US5719279A, “Asymmetrically substituted xanthines” (Boehringer Ingelheim KG, priority 1992, dated 1998).
# Target: T1, human A1 adenosine receptor (Homo sapiens, UniProt P30542)
# T1 sequence (P30542 1-326): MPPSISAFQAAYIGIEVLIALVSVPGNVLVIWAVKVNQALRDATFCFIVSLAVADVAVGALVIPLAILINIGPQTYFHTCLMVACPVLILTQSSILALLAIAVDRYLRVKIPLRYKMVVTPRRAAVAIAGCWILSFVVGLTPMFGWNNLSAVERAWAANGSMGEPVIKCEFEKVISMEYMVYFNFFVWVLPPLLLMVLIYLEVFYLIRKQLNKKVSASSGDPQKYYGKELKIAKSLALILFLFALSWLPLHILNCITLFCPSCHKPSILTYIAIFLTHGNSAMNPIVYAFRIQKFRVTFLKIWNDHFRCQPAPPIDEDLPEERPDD
# Assay: receptor binding, A1 adenosine receptor (analogously to Ensinger et al.)
# Settings: Table Ia
# Procedure: The receptor binding values were determined analogously to Ensinger et al. in "Cloning and functional characterisation of human A1 adenosine receptor--Biochemical and Biophysical Communications, Vol 187, No. 2, 919-926, 1992".
row,Ki [nM],SMILES
1,7.5,"CCCn1c(=O)c2[nH]c(C3CCCC3)nc2n(CCCC#N)c1=O [Example 01, 3-(3-cyanopropyl)-8-cyclopentyl-1-propylxanthine]"
2,8,"CCCn1c(=O)c2[nH]c(C3CCCC3)nc2n(CCCOC)c1=O [Example 04, 8-cyclopentyl-3-(3-methoxypropyl)-1-propylxanthine]"
3,46.7,"CCCn1c(=O)c2[nH]c(C3CCCC3)nc2n(CCO)c1=O [Example 05, 8-cyclopentyl-3-(2-hydroxyethyl)-1-propylxanthine]"
4,66.8,"CCCn1c(=O)c2[nH]c(C3CCCC3)nc2n(CCCO)c1=O [Example 06, 8-cyclopentyl-3-(3-hydroxypropyl)-1-propylxanthine]"
5,2.7,"CCCn1c(=O)c2[nH]c(C3CCCC3)nc2n(CCOC(C)=O)c1=O [Example 07, 8-cyclopentyl-3-(2-(methylcarbonyloxy)-ethyl)-1-propylxanthine]"
6,3.1,"CCCn1c(=O)c2[nH]c(C3CCCC3)nc2n(CCC(=O)OC)c1=O [Example 10, 8-cyclopentyl-3-(2-methoxycarbonylethyl)-1-propylxanthine]"
7,4,"CCCn1c(=O)c2[nH]c(C3CCCC3)nc2n(CCC(N)=O)c1=O [Example 11, 3-(2-carbamoylethyl)-8-cyclopentyl-1-propylxanthine]"
8,36.4,"CCCn1c(=O)c2[nH]c(C3CCCC3)nc2n(CCC(=O)N2CCOCC2)c1=O [Example 14, 8-cyclopentyl-3-(2-(N-morpholinocarbonyl)-ethyl)-1-propylxanthine]"
9,6.4,"CCCn1c(=O)c2[nH]c(C3CCCC3)nc2n(CCC(C)O)c1=O (stereo not shown) [Example 15, 8-cyclopentyl-3-(3-hydroxybutyl)-1-propylxanthine]"
10,3.8,"CCCn1c(=O)c2[nH]c(C3CCCC3)nc2n(CC=NO)c1=O [Example 17, 8-cyclopentyl-3-hydroximinoethyl-1-propylxanthine]"
11,11.5,"CCCn1c(=O)c2[nH]c(C3CCCC3)nc2n(CCCN2CCOCC2)c1=O [Example 19, 8-cyc lopentyl-3-(3-(N-morpholino)-propyl)-1-propylxanthine]"
12,1.7,"CCCn1c(=O)c2[nH]c(C3CCCC3)nc2n(CCc2ccc(O)cc2)c1=O [Example 24, 8-cyclopentyl-3-(2-(p-hydroxyphenyl)-ethyl)-1-propylxanthine]"
13,29.3,"CCCn1c(=O)c2[nH]c(C3CCCC3)nc2n(CCc2ccc(OC(C)=O)cc2)c1=O [Example 28, 8-cyclopentyl-3-(2-(p-(methylcarbonyloxy)-phenyl)-ethyl)-1-propylxanthine]"
14,9.1,"CCCn1c(=O)c2[nH]c(C3CCCC3)nc2n(CCCc2ccc(OCC(=O)OCC)cc2)c1=O [Example 31, 8-cyclopentyl-3-(3-(p-(ethoxycarbonylmethyloxy)-phenyl)-propyl)-1-propylxanthine]"
15,2.1,"CCCn1c(=O)c2[nH]c(C3CCCC3)nc2n(CCSCCO)c1=O [Example 47, 8-cyclopentyl-3-(2-(2-hydroxyethyl)-thioethyl)-1-propylxanthine]"
16,5,CCCn1c(=O)c2[nH]c(C3CCCC3)nc2n(CCCc2cccnc2)c1=O [Example 52]
17,2,CCCn1c(=O)c2[nH]c(C3CCCC3)nc2n(CCc2ccncc2)c1=O [Example 59]
18,3.8,"CCCn1c(=O)c2[nH]c(C3CCCC3)nc2n(CCCC(N)=O)c1=O [Example 60, 3-(3-(aminocarbonyl)-propyl)-8-cyclopentyl-1-propylxanthine]"
19,32.6,CCCn1c(=O)c2[nH]c(C3CCCC3)nc2n(CCN2CCSCC2)c1=O [Example 68]
20,6.2,"CCCn1c(=O)c2[nH]c(C3CCCC3)nc2n(CCS(=O)(=O)CCO)c1=O [Example 70, 8-cyclopentyl-3-(2-(2-hydroxyethyl)-sulphonylethyl)-1-propyl-xanthine]"

row,SMILES,Ki [nM]
1,"CCCn1c(=O)c2[nH]c(C3CCCC3)nc2n(CCCOC(C)=O)c1=O [Example 08, 8-cyclopentyl-3-(3-acetoxypropyl)-1-propylxanthine]",3.5

# Test system: CF PAC cells
# Assay: efflux of chloride ions in CF PAC cells (preliminary investigations)
# Type: cell-based, human (patients suffering from cystic fibrosis)
# Settings: activity of A1-antagonists in CF PAC cells
# From the text: Cystic fibrosis--also known as mucoviscidosis--is a hereditary disorder caused by a genetic defect on a certain chromosome. Only homozygotic carriers of the feature succumb to the disease. The genetic defects leads to the .dysfunction of exocrine glands. As a result of increased production and greater viscosity of the secretions of the mucous glands in the bronchi, severe complications may arise in the respiratory tract. Preliminary investigations have shown that A1 -antagonists increase the efflux of chloride ions, e.g..in CF PAC cells. The cells come from a pancreas adenocarcinoma cell line which was isolated from patients suffering from cystic fibrosis (CF).
row,SMILES,blockade of the chloride efflux activity by agonists
1,Nc1nc(Cl)nc2c1ncn2[C@@H]1O[C@H](CO)[C@@H](O)[C@H]1O [2-chloroadenosine],successfully blocked
